Results from paper PMC10305119, “Analogs of 6-Bromohypaphorine with Increased Agonist Potency for α7 Nicotinic Receptor as Anti-Inflammatory Analgesic Agents” (Marine Drugs, 2023).
Entries after “also recorded” stand apart in the source; their conditions may differ.

What was measured:
MIA-induced arthritis = assay: Monoiodoacetate-induced arthritis model, functional tests; type: in vivo, Wistar female rats
Experimental: By the 8th day of the experiment, the maximum inflammation of the knee joint was noted. […] On the 8th and 16th days, the effect of the compound was assessed using a set of functional tests: weight distribution between the healthy and inflamed limbs immediately after the first 6ND injection (Figure 8a) and after eight days of 6ND administration (Figure 8b), muscle strength grasping the hind limbs after the first 6ND injection (Figure 8c) and after eight days of 6ND administration (Figure 8d), mechanical allodynia after the start of 6ND administration and after eight days of 6ND administration (Figure 8e,f, respectively), thermal hypersensitivity 2 h after administration of 6ND ([…]), and measuring the diameter of the knee joint (Figure 8h).
Four groups of animals were formed: control and three groups with modelling of inflammation by introducing monoiodoacetate (MIA). Three groups of animals were injected with 3 mg MIA in 50 μL of 0.9% sodium chloride through the patellar ligament into the intra-articular space of the right knee using a 29-G needle. Control rats received an equivalent volume of 0.9% sodium chloride.
Assessments of inflammation in vivo and functional tests were conducted on days 8 and 16 after arthritis model induction. Thermal and mechanical hypersensitivity and pain-induced articular disability were tested in this model. Body weight gain and paw oedema were also monitored during the experiment.
The inflamed paw withdrawal or licking latencies to thermal stimulation were measured on a hot plate device (Hot Plate Analgesia Meter, Columbus Instruments) with a set temperature of 53 ± 0.1 °C and a cut-off time of 60 s.
Mechanical hypersensitivity was measured by the electronic von Frey instrument (model BIO-EVF4; Bioseb, Vitrolles, France) used to vertically stimulate the center of the rat hind paw with increasing intensity. Measurements were repeated 3 times and the final value was obtained by averaging the 3 measurements.
Behavioral assessment of movement-caused pain was carried out in a hind limb grip strength test using a Grip Strength Meter (Columbus Instruments, Columbus, OH, USA) consisting of a wire mesh frame connected to the gauge. Rats were restrained and allowed to grasp the wire mesh frame with their hind paws and then were pulled backwards until the grip released. Three measurements were conducted with an interval of 30 s for the averaged grip strength calculation.

[1] = system: CD11c expression on macrophages; assay: Flow cytometry of macrophage membrane protein CD11c; type: cell-based, human; details: 48 h
Experimental: The selective agonist PNU 282,987 increased CD11b and CD11c protein expression by an average of 10% and 26%, respectively (Figure 4a,b).
(§1) Peripheral blood mononuclear cells (PBMCs) were separated by Ficoll-Paque PLUS density gradient centrifugation. PBMCs were placed in a sterile Petri dish and incubated at 37 °C for 2 h. Unattached cells were then removed by washing with PBS and substituted with fresh complete RPMI 1640 medium. To generate monocyte-derived macrophages (MDMs), 50 ng/mL GM-CSF was added to the isolated monocytes and cultured for 6 days to differentiate them into non-polarized MDMs.
(§2) Figure 4 The effects of PNU 282987, hypaphorine, and D-6-iodohypaphorine methyl ester (6ID) on macrophage membrane proteins expression. Cells were treated with these compounds for 48 h and then analyzed by flow cytometry. PNU 282,987 led to an increase in the (a) CD11b and (b) CD11c expression. (c): All tested compounds led to a decrease in TLR4 expression. (d): Macrophages stimulation with hypaphorine and 6ID promoted an increase in CD86 expression. Results obtained in three independent experiments on macrophages from different donors and presented as mean ± SD. One-way ANOVA tests with Tukey post hoc test: * p ˂0.05, ** p ˂ 0.01, **** p < 0.0001 in comparison with untreated cells.

[2] = target: T1, human α3-containing nAChRs (Homo sapiens, UniProt P32297); assay: Calcium imaging of α3-containing nAChRs in SH-SY5Y cells (nicotine-induced calcium rise); type: cell-based
T1 construct: endogenous in cells; host or cells: human neuroblastoma SH-SY5Y
Experimental: Two of the studied compounds with high and medium agonist potency for α7 nAChR (6CF and 6ID, Table 1) were tested for activity toward α3* nAChR by calcium imaging.
Normalized data are presented as mean ± standard error. n = 6–7.

α9α10 nAChR = target: T2, α9α10 nAChR (Homo sapiens, UniProt Q9GZZ6+Q9UGM1); assay: Two-electrode voltage-clamp on α9/α10 nAChR in Xenopus oocytes; type: cell-based
T2 construct: expressed in transfected cells; host or cells: Xenopus oocytes injected with in vitro transcribed RNA
Experimental: Recordings were performed using Axopatch 200 amplifier in two-electrode voltage-clamp setup (Molecular Devices, LLC, San Jose, CA, USA) on oocytes removed from mature Xenopus frogs. Two to three days before taking recordings, oocytes were injected with in vitro transcribed RNA, coding α9 and α10 nAChR and kept at 18 °C in ND96 electrophysiology buffer solution (5 mM HEPES/NaOH at pH 7.6 and 18 °C, 96 mM NaCl, 2 mM KCl, 1.8 mM CaCl2, 2 mM MgCl2).

[3] = system: CD86 expression on macrophages; assay: Flow cytometry of CD86 protein on macrophages; type: cell-based, human; details: 48 h incubation
Experimental: The effect of the above-listed compounds on the expression of the TLR4 receptor and the CD86 protein was studied by flow cytometry after 48 h incubation with macrophages. The interaction of bacterial endotoxins with the TLR4 receptor is known to activate the expression of several pro-inflammatory cytokine genes, while the co-stimulatory molecule CD86 plays an important role in […] inflammatory responses. A decrease in the expression of the TLR4 receptor was observed under the action of all tested compounds (Figure 4c,e), the rank order of these TLR4-suppressing effects was as follows: hypaphorine (14%) < PNU 282,987 (21%) < 6ID (31%).
as §1, §2

T1 sequence (P32297 32-505): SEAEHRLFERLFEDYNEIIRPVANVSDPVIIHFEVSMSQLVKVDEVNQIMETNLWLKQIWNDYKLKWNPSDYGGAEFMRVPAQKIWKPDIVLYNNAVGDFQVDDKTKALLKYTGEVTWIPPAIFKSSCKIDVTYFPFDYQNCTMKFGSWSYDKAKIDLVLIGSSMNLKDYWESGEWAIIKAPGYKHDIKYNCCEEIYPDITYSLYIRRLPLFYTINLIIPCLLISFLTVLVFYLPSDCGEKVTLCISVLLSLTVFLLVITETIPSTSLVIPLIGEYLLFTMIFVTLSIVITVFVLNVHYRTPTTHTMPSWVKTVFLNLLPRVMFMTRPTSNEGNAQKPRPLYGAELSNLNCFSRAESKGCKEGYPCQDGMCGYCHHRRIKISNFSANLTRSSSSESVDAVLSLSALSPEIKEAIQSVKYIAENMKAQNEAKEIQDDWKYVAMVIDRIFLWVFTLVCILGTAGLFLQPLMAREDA
T2 sequence (Q9UGM1 26-479 limits assumed): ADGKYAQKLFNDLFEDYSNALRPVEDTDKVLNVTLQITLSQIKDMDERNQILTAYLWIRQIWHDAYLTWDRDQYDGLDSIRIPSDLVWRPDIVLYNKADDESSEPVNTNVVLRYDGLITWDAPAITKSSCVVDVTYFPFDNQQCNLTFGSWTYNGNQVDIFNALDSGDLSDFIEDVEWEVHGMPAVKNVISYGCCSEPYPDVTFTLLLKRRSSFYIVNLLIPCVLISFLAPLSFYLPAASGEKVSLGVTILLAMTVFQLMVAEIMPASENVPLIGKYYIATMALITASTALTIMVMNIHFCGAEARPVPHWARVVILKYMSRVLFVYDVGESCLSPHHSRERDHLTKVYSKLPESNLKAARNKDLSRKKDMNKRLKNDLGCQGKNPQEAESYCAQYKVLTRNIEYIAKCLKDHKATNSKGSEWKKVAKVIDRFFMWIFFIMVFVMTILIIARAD
T2 sequence (Q9GZZ6 25-450): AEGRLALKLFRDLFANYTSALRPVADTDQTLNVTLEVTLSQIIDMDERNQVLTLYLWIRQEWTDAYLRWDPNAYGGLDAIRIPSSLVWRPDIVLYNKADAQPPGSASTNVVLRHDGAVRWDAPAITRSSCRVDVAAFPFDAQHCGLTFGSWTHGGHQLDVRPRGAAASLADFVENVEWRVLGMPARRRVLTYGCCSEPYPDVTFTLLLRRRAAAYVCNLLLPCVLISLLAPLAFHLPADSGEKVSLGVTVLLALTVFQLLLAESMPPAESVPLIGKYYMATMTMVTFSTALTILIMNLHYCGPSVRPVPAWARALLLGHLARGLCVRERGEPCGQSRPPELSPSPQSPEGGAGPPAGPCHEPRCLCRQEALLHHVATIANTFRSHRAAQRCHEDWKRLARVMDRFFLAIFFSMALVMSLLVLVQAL

SMILES: COC(=O)C(Cc1c[nH]c2cc([N+](=O)[O-])ccc12)[N+](C)(C)C (stereo not drawn) [Compound 5, methyl ester of 6-nitrohypaphorine]
- anti-oedemic and analgesic effects in arthritis rat model (MIA-induced arthritis; i.p. doses 0.05–0.26 mg/kg): demonstrated anti-oedemic and analgesic effects
- grip strength of affected limb (MIA-induced arthritis; rats, 0.05 and 0.26 mg/kg, after eight days of administration, listed as 6ND): significantly improved grip strength in MIA-induced arthritis in rats at a dose of 0.05 but not 0.26 mg/kg; also recorded: significantly improved grip strength of affected limb after eight days
- body weight distribution between healthy and affected limbs (MIA-induced arthritis; rats, 0.05 and 0.26 mg/kg, days 8 and 16, listed as 6ND): No significant influence of 6ND on recovery was detected; also recorded: did not influence body weight distribution
- thermal hyperalgesia in hot plate test (MIA-induced arthritis; rats, 2 h after administration, listed as 6ND): No significant effects of 6ND in hot plate test; also recorded: did not influence thermal hyperalgesia
- mechanical allodynia (MIA-induced arthritis; rats, 16 days after MIA, eight days of administration, listed as 6ND): dose-dependent improvement in allodynia test 16 days after MIA injection; also recorded: analgesic (anti-allodynic) effect
- oedema of the MIA-injected knee joint (diameter) (MIA-induced arthritis; rats, listed as 6ND): Significant effect in dynamics of oedema was detected in rats treated with 0.05 mg/kg 6ND; also recorded: anti-oedemic effect on the MIA-injected joint

SMILES: C[N+](C)(C)[C@H](Cc1c[nH]c2ccccc12)C(=O)[O-] [Compound 16, L-hypaphorine, reference compound]
- increase in CD11c protein expression [1]: but not 6ID or hypaphorine, leads to a significant increase

SMILES: COC(=O)[C@@H](Cc1c[nH]c2cc(I)ccc12)[N+](C)(C)C [Compound 1, (D)-6-iodohypaphorine methyl ester]
- agonism on α3* nAChR (calcium response) ([2]; compound alone, listed as 6ID): does not evoke noticeable calcium response in range of 3–30 μM; also recorded: Neither 6ID, which was most active agonist of α7 nAChR, nor 6CF showed detectable agonism on α3* nAChR at concentrations up to 30 µM
- IC50 ([2]; inhibition of nicotine (100 μM)-induced calcium rise): 4.4 ± 1 µM
- increase in CD11c protein expression ([1]; listed as 6ID): not statistically significant; also recorded: but not 6ID or hypaphorine, leads to a significant increase
- activity toward α9α10 nAChR (α9α10 nAChR): almost inactive
- increase in the expression of CD86 [3]: 21%
